Results on one compound are retold here after publication PMC11117721, “A Fast-Binding, Functionally Reversible, COX-2 Radiotracer for CNS PET Imaging” (ACS Central Science, 2024).

The series deals with T1, COX-2 (Rattus norvegicus, UniProt P35355).
T1 construct: endogenous COX-2 expression in naïve rats; from tissue; host or cells: brain of living naive rats
T1 sequence (P35355 18-604): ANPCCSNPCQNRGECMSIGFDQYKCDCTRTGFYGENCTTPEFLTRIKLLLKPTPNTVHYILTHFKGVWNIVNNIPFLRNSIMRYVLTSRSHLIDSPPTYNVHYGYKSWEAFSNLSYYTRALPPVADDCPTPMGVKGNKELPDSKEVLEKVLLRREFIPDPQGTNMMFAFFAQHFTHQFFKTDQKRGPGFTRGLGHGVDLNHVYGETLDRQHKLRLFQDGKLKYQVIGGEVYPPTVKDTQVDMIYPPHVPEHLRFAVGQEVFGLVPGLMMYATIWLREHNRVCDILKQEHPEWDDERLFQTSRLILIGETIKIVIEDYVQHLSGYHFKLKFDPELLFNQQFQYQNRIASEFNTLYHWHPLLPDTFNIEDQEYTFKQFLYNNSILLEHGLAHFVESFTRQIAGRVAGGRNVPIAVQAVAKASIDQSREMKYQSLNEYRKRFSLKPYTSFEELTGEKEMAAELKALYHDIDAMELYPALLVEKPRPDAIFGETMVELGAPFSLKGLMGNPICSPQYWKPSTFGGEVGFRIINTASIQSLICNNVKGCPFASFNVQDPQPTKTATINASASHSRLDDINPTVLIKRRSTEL
The experiment in a line: PET neuroimaging of naïve rats. The following applies: in vivo PET, result in words. How it is done:
deepest would be injected and allowed to perfuse for 15 min until all three injections were completed.
In some experimental groups, mannitol was injected intraperitoneally (IP) or co -administered with the […]
After the surgical procedure was completed, animals were given enough time to recover (generally 28 days post-surgery) to facilitate cellular transduction with the AAV as well as subsequent expression of COX -2 and GFP, before subsequent imaging or IHC interrogation was conducted.
Rodent PET/MRI Acquisition
All PET and MRI experimental procedures were acquired on a 4.7 Tesla PET-MRI scanner using a B-GA20S HP gradient coil with a PET Insert Si 198 (Bruker Biospin, Billerica, MA). Custom 3D-printed cradles were used to secure anesthetized animals in the scanner. Rat and mice experimental groups were imaged separately. For rats, one animal was placed head-prone, and the other was placed tail-prone, aligning their heads in the scanner. For rat blocking experiments celecoxib was formulated in 20% ethanol, 30% polyethylene glycol and 50% saline and diluted appropriately to administer 1 mL/kg. For mice, up to six mice were inserted, two head prone and four tail prone. ParaVision 6 (Bruker) was used to acquire MR images, and ParaVision 360 (Bruker) was used to obtain PET images. […]

On to `[11CH3]S(=O)(=O)c1ccc(-c2cccc(NCc3ccoc3)n2)cc1` [[^11C]BRD1158], for which the brain uptake result was “rapid and robust brain uptake”.
